# pEC50: −log10 of the molar value.
# Test system: HBV
# Assay: HBV in vitro test in quantitative qPCR assay (HBV DNA content in HepG2.2.15 cells)
# Type: cell-based
# Details: HBV DNA by qPCR, day 8, read-out: 50% inhibitory concentration (EC50) value of HBV
# Protocol: HBV In Vitro Test in Quantitative qPCR Assay
# The HBV DNA content in HepG2.2.15 cells was determined by real-time quantitative qPCR assay (real time-qPCR), and the inhibitory effect of the compound on HBV was evaluated by the EC50 value of the compound.
# 2.1 Cell line: HepG2.2.15 cells
# 3.1 HepG2.2.15 cells (4×10^4 cells/well) were seeded into a 96-well plate and incubated overnight at 37° C. under 5% CO2.
# 3.2 On the 2nd day, the compound was diluted into 8 concentrations with 3-time gradient. The compounds with different concentrations were added into the culture wells in duplicate wells. The final concentration of DMSO in the culture medium was 1%. 1 μM GLS4 was used as a 100% inhibition control, and 1% DMSO was used as a 0% inhibition control.
# 3.3 On the 5th day, the culture medium was replaced with a fresh medium containing the compound.
# 3.4 On the 8th day, the culture medium in the culture well was collected, and the DNA was extracted with a high-throughput DNA purification kit (Qiagen-51162), of which specific procedure was referred to the product specification.
# 3.6 15 μL of the reaction mixture was added into each well of a 96-well PCR plate, followed by addition of 10 μL of sample DNA or HBV DNA standards into each well.
# 3.7 PCR reaction conditions: heating at 95° C. for 10 minutes; then denaturation at 95° C. for 15 seconds, extension at 60° C. for 1 minute, a total of 40 cycles.
# 3.8.1 Calculation of the percentage of inhibition: % Inh.=[1−(DNA copy number in sample−DNA copy number in 1 μM GLS4)/(DNA copy number in DMSO control−DNA copy number in 1 μM GLS4)]×100
# 3.8.2 Calculation of EC50: The 50% inhibitory concentration (EC50) value of the compound on HBV was calculated by GraphPad Prism software.
row,Compound,pEC50
1,O=C(NCCOc1cccnc1)c1ccc2c(c1)NC(=O)c1cccn1S2(=O)=O [WX297],≥ 7.00

# Same assay, conditions: Hepatitis B virus, HepG2.2.15, 192 h, HBV DNA by qPCR, day 8, read-out: 50% inhibitory concentration (EC50) value of HBV
row,Compound,pEC50
1,CS(=O)(=O)N1CC(NC(=O)c2ccc3c(c2)NC(=O)c2cccn2S3(=O)=O)C1 [WX232],6.00 to 6.30
2,COC(=O)N1CC(NC(=O)c2ccc3c(c2)NC(=O)c2cccn2S3(=O)=O)C1 [WX201],6.00 to 6.30
3,O=C(NCC1CCC(F)(F)CC1)c1ccc2c(c1)NC(=O)c1cccn1S2(=O)=O [WX288],6.30 to 7.00
4,Cn1nccc1CNC(=O)c1ccc2c(c1)NC(=O)c1cccn1S2(=O)=O [WX263],6.00 to 6.30
5,O=C(NCCc1ccccc1)c1ccc2c(c1)NC(=O)c1cccn1S2(=O)=O [WX218],≥ 7.00

# Reference: patent US11053260B2, “Tri-cycle compound and applications thereof” (FUJIAN COSUNTER PHARMACEUTICAL CO., LTD., priority 2017, dated 2021)
